From patent US11274332B2, “Methods of administering 3,4-diaminopyridine” (SERB SA, priority 2011, dated 2022)

How the values were obtained:
[1] = Rat PK study, IV and oral TID amifampridine phosphate (Example 4); format: in vivo; details: rat plasma
Experimental: The objective of this study was to determine the absolute bioavailability of amifampridine phosphate and the pharmacokinetics of amifampridine and its 3-N-acetyl metabolite upon single-dose IV and single-day oral dose (TID) administration.
Amifampridine phosphate was administered by IV bolus at 0.8 mg/kg (in saline) to 6 rats/sex and by oral gavage (in water) TID (approximately 6 hours apart) at dose levels of 2, 8, and 25 mg/kg/dose (equivalent to 6, 24, and 75 mg/kg/day) to 12 rats/sex/group, with oral Dose 1 given to fasted rats and Dose 2 and 3 with food ad libitum. For IV bolus dose and oral Dose 1 (dose administration No. 1), blood samples were collected from three animals/sex/timepoint at predose and 0.083 (IV only), 0.17, 0.25, 0.33, 0.5, 0.75, 1, 1.25 (IV only), 1.5, 2, 2.5, 3, and 6 hours post-dose; 0.17, 0.5, and 6 hours following the second oral dose (dose administration No. 2); and 0.17, 0.25, 0.33, 0.5, 0.75, 1, 1.5, 2, 3, 4, 6, 8, and 10 hours following the third oral dose (dose administration No. 3). The second and third oral doses were given at 6 and 12 hours, respectively, after the first dose. LC-MS/MS was used to quantify amifampridine, 3-N-acetyl and 4-N-acetyl amifampridine metabolites in rat plasma samples. […] Noncompartmental analysis was applied to the mean plasma amifampridine and 3-N-acetyl metabolite concentration data for male and female rats. […]

[2] = biological target: T1, cloned human Kv1.4 potassium channel (Homo sapiens, UniProt P22459); experiment: PatchXpress inhibition of cloned human Kv1.4 in HEK293 cells (Example 6); format: cell-based; details: hKv1.4, up to 3000 μM
T1 construct: expressed in transfected cells
Source text: The objective of this study was to examine the in vitro effects and determine the […] of 3,4-DAP phosphate and the metabolite N-(4-aminopyridin-3-yl) acetamide HCl on the following ion channels: cloned human Kv1.1 potassium channel (encoded by the human KCNA1 gene, expressed in HEK293 cells), cloned human Kv1.2 potassium channel (encoded by the human KCNA2 gene, expressed in HEK293 cells), cloned human Kv1.3 potassium channel (encoded by the human KCNA3 gene, expressed in CHO cells), cloned human Kv1.4 potassium channel (encoded by the human KCNA4 gene, expressed in HEK293 cells), cloned human Kv1.5 potassium channel (encoded by the human KCNA5 gene and expressed in CHO cells), responsible for IKur, ultra-rapid delayed rectifier potassium current.
Chemicals used in solution preparation were purchased from Sigma-Aldrich (St. Louis, Mo.), unless otherwise noted, and were of ACS reagent grade purity or higher. Stock solutions of each test article (100 mM, 30 mM and 1.00 mM 3,4-DAP phosphate and 100 mM N-(4-aminopyridin-3-yl)acetamide) were prepared in sterile water and stored refrigerated. […]
In preparation for a recording session, intracellular solution was loaded into the intracellular compartments of the Sealchip16. […] After establishment of a whole-cell configuration, membrane currents were recorded using dual-channel patch clamp amplifiers in the PatchXpress®. […]

T1 sequence (P22459 whole entry): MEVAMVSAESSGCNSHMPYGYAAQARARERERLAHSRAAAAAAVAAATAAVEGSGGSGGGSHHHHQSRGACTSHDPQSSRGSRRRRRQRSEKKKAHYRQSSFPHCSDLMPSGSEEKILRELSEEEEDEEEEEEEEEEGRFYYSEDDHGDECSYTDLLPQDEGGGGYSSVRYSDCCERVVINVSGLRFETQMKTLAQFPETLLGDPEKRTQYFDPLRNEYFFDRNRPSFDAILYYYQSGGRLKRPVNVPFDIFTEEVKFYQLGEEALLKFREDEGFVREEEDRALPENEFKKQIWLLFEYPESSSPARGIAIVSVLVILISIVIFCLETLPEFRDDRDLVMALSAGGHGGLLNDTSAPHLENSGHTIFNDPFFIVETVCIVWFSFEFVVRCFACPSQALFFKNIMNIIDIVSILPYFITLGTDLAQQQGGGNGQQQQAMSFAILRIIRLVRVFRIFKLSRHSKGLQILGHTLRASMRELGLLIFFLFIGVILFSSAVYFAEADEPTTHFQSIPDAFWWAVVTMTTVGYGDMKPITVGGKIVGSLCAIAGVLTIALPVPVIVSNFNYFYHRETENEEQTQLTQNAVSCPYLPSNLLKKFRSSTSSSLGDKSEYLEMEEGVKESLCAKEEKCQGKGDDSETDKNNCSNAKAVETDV

Structure (SMILES): CC(=O)Nc1cnccc1N [3-N-acetyl amifampridine, N-(4-aminopyridin-3-yl)acetamide]
- abundance of major circulating metabolite relative to 3,4-DAP [1]: more abundant than 3,4-DAP
- activity on K+ channel [2]: inactive
- activity on K+ channel ([2]; listed as N-acetyl metabolite): not active
